Like-named read-outs stand apart in the source and are kept apart here.
Experiments:
[1] = tested on: fungi; conditions: cited from earlier work
[2] = tested on: wood-damaging fungi; conditions: cited from earlier work
[3] = tested on: blue stain infection
Source text: Immersion Impregnation with Aqueous Potassium Sorbate Solution Air-dry pine boards are dipped into a solution of 30% potassium sorbate in water for […] of the surface. After the treatment they are air dried.
Air-dried pine boards are, as in example 1, dipped into a solution of 30% potassium sorbate in a mixture of 75% by volume of water and 25% by volume of 1,2-propanediol, further treated and stored.
Air-dried pine boards are sprayed with a spraying pistol with a solution of 20% potassium sorbate in water until the surface is uniformly wet. The boards are then allowed to dry and are stored as in example 1.

[4] = tested on: molds; conditions: 35° C. saturated water vapor
Experimental: Two pinewood boards in each case are dipped into potassium sorbate solution (see table 1 for concentrations) and stored in a saturated water vapor atmosphere at 35° C. In parallel with this, in each case two pinewood boards, after the dipping, were additionally dirtied with soil on the surface in order to achieve greater surface contamination with molds. The boards were individually packed in film in order to exclude cross contaminations and regularly visually examined for fungal infection.

In the case of C/C=C/C=C/C(=O)[O-].[Na+] [sodium sorbate], the “Protection of bamboo against fungal infection” value ([1]; generally, even after a few days) is listed as “infection with fungi” and the “Protection of bamboo against fungal infection” value ([1]; pH 3.0) is listed as “active”.
In the case of C/C=C/C=C/C(=O)[O-].C/C=C/C=C/C(=O)[O-].[Zn+2] [zinc salt of sorbic acid], the “Activity as wood preservative” value [2] is listed as “inactive”.
In the case of C/C=C/C=C/C(=O)[O-].[K+] [potassium sorbate], the “Fungal infection after storage” value ([3]; pine boards dipped in 30% potassium sorbate in 75% by volume water / 25% by volume 1,2-propanediol, stored as in example 1) is reported as “completely free from fungal infection”, the “Fungal infection after storage” value ([3]; pine boards dipped in 30% potassium sorbate in water, stored in the open three weeks next to untreated boards) is reported as “remain free from fungal infection” and the “Fungal infection after storage” value ([3]; pine boards sprayed with 20% potassium sorbate in water, stored as in example 1) is reported as “corresponds to that of example 1”. The Fungal infection ([4]; V1: dwell time 10 min, 1 % by weight solution, without soil) was “no/after 81 days”, the Fungal infection ([4]; V2: dwell time 10 min, 2 % by weight solution, without soil) was “no/after 81 days” and the Fungal infection ([4]; V3: dwell time 10 min, 5 % by weight solution, without soil) was “no/after 81 days”. The Fungal infection ([4]; V4: dwell time 5 min, 10 % by weight solution, without soil) was “no/after 81 days”, the Fungal infection ([4]; V5: dwell time 10 min, 1 % by weight solution, with soil) was “little/from day 43” and the Fungal infection ([4]; V6: dwell time 10 min, 2 % by weight solution, with soil) was “little/from day 53”. For the same compound, the Fungal infection ([4]; V7: dwell time 10 min, 5 % by weight solution, with soil) was “no/after 81 days” and the Fungal infection ([4]; V8: dwell time 5 min, 10 % by weight solution, with soil) was “no/after 81 days”.
